According to article PMC7615676, “Short-course combination treatment for experimental chronic Chagas disease” (Science translational medicine, 2023):
≈ marks a conversion by molar mass, not a printed value. Where “and” joins values, the source holds several entries; their conditions need not be identical. Equal entries are not always repeated. Where two headings read alike, the source gives them in different places.

Assays:
T. cruzi CYP51 = T. cruzi CYP51 (Trypanosoma cruzi, UniProt Q7Z1V1); experiment: T. cruzi CYP51 biochemical assay
Sequence of T. cruzi CYP51 (Q7Z1V1 whole entry): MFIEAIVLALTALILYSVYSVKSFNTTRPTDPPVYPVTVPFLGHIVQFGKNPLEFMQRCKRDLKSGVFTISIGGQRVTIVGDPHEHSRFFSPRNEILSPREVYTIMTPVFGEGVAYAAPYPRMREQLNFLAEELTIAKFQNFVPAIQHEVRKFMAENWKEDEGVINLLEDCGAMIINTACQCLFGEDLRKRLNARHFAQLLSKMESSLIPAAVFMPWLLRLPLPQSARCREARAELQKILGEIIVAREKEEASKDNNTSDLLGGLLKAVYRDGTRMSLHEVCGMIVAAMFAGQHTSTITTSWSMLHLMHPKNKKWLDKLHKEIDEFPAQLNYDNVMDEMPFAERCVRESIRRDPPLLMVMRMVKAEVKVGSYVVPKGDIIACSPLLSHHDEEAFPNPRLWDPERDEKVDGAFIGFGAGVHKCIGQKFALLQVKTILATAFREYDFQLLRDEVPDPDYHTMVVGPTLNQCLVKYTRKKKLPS

HepG2 cells = experiment: general cytotoxicity assay in HepG2 cells; type: cell-based; details: Homo sapiens, HepG2, 48 h, CellTiter-Glo
Description: This assay was previously described ([36]). Briefly, actively growing HepG2 cells were removed from a T-175 TC flask using 5 ml Eagle’s MEM (containing 10 % FBS, 1 % NEAA, 1 % penicillin/ streptomycin. Carbon source is D-glucose at 1 g/l) and dispersed in the medium by repeated pipetting. Seeding density was checked to ensure that new monolayers were not more than 50 % confluent at the time of harvesting. Cell suspension was added to 500 ml of the same medium at a final density of 1.2 x 10^5 cells/ml. This cell suspension was dispensed (25 μl, 3000 cells per well) into 384-well clear-bottom plates using a Multidrop Combi dispenser. Prior to addition of the cell suspension, the screening compounds (250 nl) were predispensed into the plates with an EchoH liquid handler. Plates were incubated for 48 h at 37°C, 5% CO2. After incubation, plates equilibrated at room temperature for 30 min before proceeding to develop the luminescent signal. The signal developer, CellTiter-Glo Reagent, was allowed to equilibrate at room temperature for 30 min and added to the plates ([…]) using a Multidrop Combi dispenser. Plates were left for 10 min at room temperature for stabilization and then read using a ViewLux.

[1] = intrinsic clearance in mouse liver microsomes; type: in vitro ADME; details: for half-life at 0.5 μM: male, CD-1, read-out: T 1/2 mouse
Description: Immediately at time zero and at several serial times points up to 30 min, an aliquot of the incubation mixture was removed and mixed with acetonitrile to stop the reaction. Internal standard was added to all samples, the samples centrifuged to sediment precipitated protein and the plates then sealed prior to HPLC-MS/MS analysis. Metabolic stability expressed as a percentage of the parent molecule was calculated using the peak area ratio (compound peak area/internal standard peak area) of different compounds remaining after each incubation time compared to time zero of the incubation. The half-life (t1/2) was calculated using the following equation: t1/2=−ln(2)/k, where k is the turn-over rate constant of the ln (percent remaining) vs time regression.
CLint was calculated from the half-life (t1/2) using the following equations:
CLint (ml/min/g liver) = (0.693/(t1/2) x (ml of incubation/mg microsomal protein) x (mg microsomal protein/g liver).

[2] = chromatographic LogD assay; type: physicochemical; details: reversed phase HPLC column (Gemini NX C18), pH 7.4; read-out: Chrom logD pH 7.4
Description: The chromatographic hydrophobicity index (CHI) values were measured using reversed phase HPLC column (50 mm × 2 mm, 3 μm Gemini NX C18, Phenomenex, U.K.) with fast acetonitrile gradient at starting mobile phase at pH 7.4. CHI values were derived directly from the gradient retention times by using a calibration line obtained for standard compounds. The CHI value approximates to the volume % organic concentration when the compound elutes. CHI was linearly transformed into ChromlogD by least-squares fitting of experimental CHI values to calculated log P (ClogP) values for over 20K research compounds using the following formula: ChromlogD = 0.0857CHI − 2.00. The average error of the assay is ±3 CHI units or ± 0.25 ChromlogD.

Vero host cells = experiment: cytotoxicity against host cells in intracellular amastigote assay; type: cell-based; details: Chlorocebus sabaeus, Vero, host cell cytotoxicity
[3] = tested on: wild-type T. cruzi epimastigotes; experiment: epimastigote drug sensitivity assay, wild-type; type: cell-based; details: Trypanosoma cruzi
Description: T. cruzi epimastigotes from the Silvio strain (MHOM/BR/78/Silvio; clone X10/7A) were grown at 28°C in RTH/FBS medium ([80]).
T. cruzi epimastigote assays carried out as described previously ([43]).

[4] = kinetic aqueous solubility (CLND); type: physicochemical; details: phosphate buffered saline, aqueous buffer, kinetic from dmso stock, pH 7.4
Description: The eluent is quantified by suitably calibrated flow injection CLND. This assay has a dynamic range between the lower detection limit of 1 and 500 μM, governed by the protocol’s 1:20 dilution into pH 7.4 phosphate buffer solution from nominal 10 mM DMSO stock.

[5] = tested on: chronic T. cruzi infection (CL Brener) in BALB/c mice; experiment: bioluminescent mouse model of chronic Chagas disease; type: in vivo, Trypanosoma cruzi
Description: Compound 2 was evaluated in a bioluminescent mouse model of Chagas disease designed to mimic chronic infections. This model successfully differentiates the clinically used drugs from the clinically invalidated CYP51 inhibitors ([21]). Key features of this model include immunosuppression of mice following cessation of treatment to allow detection of parasite relapses, and ex vivo bioluminescence imaging that allows tissue-specific visualization of parasites. Treatments are considered efficacious if there is no evidence of bioluminescence during in vivo (mouse) and ex vivo (organ/tissue) imaging following immunosuppression ([38]). Under these experimental conditions, compound 2 was able to prevent parasite relapse in 2 of the 6 mice treated orally twice daily for 10 days at 50 mg/kg (Table S1). Increasing the dose to 100 mg/kg or extending treatment duration to 21 days provided similar partial efficacy rates.
Experiments followed a similar protocol to that described in ([21]). All animals were female (BALB/cAnNCrlC mice, 6-8 weeks old, strain code: 028, supplier: Charles River (UK)). We have previously shown that there are no differences in the bioluminescence profiles between infected males and females ([77]). Animals were maintained under specific pathogen-free conditions in individually ventilated cages. They experienced a 12-hour light/dark cycle, with access to food and water ad libitum. Mice were randomly selected and distributed into cages on arrival day by a Named Animal Care and Welfare Officer (NACWO), at LSHTM biological service facility (BSF). For efficacy experiments animals were randomly selected from the cages and ear/tail tagged on the infection day, starting from number 1. The same mouse ID was kept until the experimental endpoint. Mice were infected by i.p injection with 1x10^3 trypomastigotes derived from SCID mouse blood ([67]). To confirm infection, mice were imaged around the peak of parasite load. […] Treatment initiated in the chronic stage of infection ranging between 90 and 127 days post-infection. Drugs were administered by oral gavage (~200 μl), and vehicle only (0.5% w/v hydroxypropylmethylcellulose with 0.4% v/v Tween 80 and 0.5% v/v benzyl alcohol) was administered to control mice. Total number of animals for each study arm is shown in the relevant figures. To detect residual infection, mice were immunosuppressed using cyclophosphamide (at 200 mg/kg) by ip injection every 4 days for a maximum of three doses. For in vivo imaging, mice were injected ip with 150 mg/kg D-luciferin in Dulbecco’s Ca^2+/Mg^2+-free PBS, then anaesthetized using 2.5% (v/v) isofluorane in oxygen. Images were obtained using an IVIS Lumina II system (Caliper Life Science) 10−20 min after D-luciferin administration. The detection threshold was established from uninfected mice. Organs/tissue samples were assessed by ex vivo imaging as described previously ([21]). The limit of detection in this system is less than 20 parasites ([29]).

[6] = read-out: HepG2 pEC50 (converted)
[7] = read-out: Vero pEC50 (converted)
[8] = Table 2, wild-type epimastigotes, read-out: EC50 WT

| Structure (SMILES) | IC50 (T. cruzi CYP51) [µM] | EC50 (HepG2 cells; read-out: HepG2 EC50) [µM] | EC50 (HepG2 cells; [6]) [µM] | Cl int mouse [1] [ml/min/g liver] | half-life at 0.5 μM [1] [min] | chromatographic logD [2] | EC50 (Vero host cells; read-out: Vero EC50) [µM] | EC50 (Vero host cells; [7]) [µM] | EC50 [3, 8] [µM] | solubility at 1 h [4] [µg/mL] | No. cured/ no. tested ([5]; 100 mg/kg qd oral, 10 days) | No. cured/ no. tested ([5]; 100 mg/kg qd oral, 20 days) | No. cured/ no. tested ([5]; 50 mg/kg bid oral, 10 days) | No. cured/ no. tested ([5]; 50 mg/kg bid oral, 20 days (changed to 11 bid + 9 qd)) | tolerability in infected mice ([5]; 50 mg/kg bid, 20-day regimen) | EC50 ([3]; read-out: EC50 wild-type) [µM] | EC50 ([3]; read-out: EC50 wild-type epimastigotes) [µM] | No. cured/ no. tested ([5]; 50 mg/kg bid oral, 21 days) | No. cured/ no. tested ([5]; 100 mg/kg bid oral, 10 days (changed to once daily after day 1)) | toxicity in infected mice ([5]; 100 mg/kg bid, after first day of treatment) |
| --- | --- | --- | --- | --- | --- | --- | --- | --- | --- | --- | --- | --- | --- | --- | --- | --- | --- | --- | --- | --- |
| COc1ccc(-c2c(C)[nH]c3nc(N)nc(C)c23)c(OC)c1 [Compound 4, 5-(2,4-Dimethoxyphenyl)-4,6-dimethyl-7H-pyrrolo[2,3-d]pyrimidin-2-amine] | > 100 | 79 | 79.4 | 2.0 | 33 | 3.1 | > 50 | > 50.1 | 0.088 ± 0.003 | 137 (≈ 459 µM) |  |  |  |  |  |  |  |  |  |  |
| O=C(Cn1ccnc1[N+](=O)[O-])NCc1ccccc1 [Benznidazole, reference compound] |  | > 100 | > 100 |  |  | 2.3 | > 50 | > 50.1 |  | 77 (≈ 296 µM) | 3/3 | 6/6 |  |  |  |  |  |  |  |  |
| COc1cc(Cl)ccc1-c1c(C)[nH]c2nc(N)nc(C)c12 [Compound 3, 5-(4-Chloro-2-methoxyphenyl)-4,6-dimethyl-7H-pyrrolo[2,3-d]pyrimidin-2-amine] | > 100 | 79 | 79.4 | 1.4 | 48 | 4.2 | > 50 | > 50.1 | 0.006 ± 0.0002 | 103 (≈ 340 µM) |  |  | 4/6 | 2/6 | tolerability issues | 0.0046 ± 0.0002 | 0.0113 ± 0.0005 |  |  |  |
| COc1cc(F)ccc1-c1c(C)[nH]c2nc(N)nc(C)c12 [Compound 2, 5-(4-Fluoro-2-methoxyphenyl)-4,6-dimethyl-7H-pyrrolo[2,3-d]pyrimidin-2-amine] | > 100 | 79 | 63.1 | 1.3 | 52 | 3.4 | > 50 | > 50.1 | 0.033 ± 0.002 | 117 (≈ 409 µM) |  |  | 2 of the 6 and 2/6 |  |  |  |  | 2/6 | 2/4 | two mice were culled due to toxicity |
